Active and inactive are the calls of the source. No cut-off for these calls is given here.
Tests used:
Tubulin = test: Inhibition of tubulin (unknown origin) polymerization incubated 15 mins prior to GTP addition by spectrophotometry; assay type: protein-complex assay, Homo sapiens
HeLa [1] = test: Cytotoxicity against human HeLa cells assessed as growth inhibition after 48 hrs by MTT method; assay type: functional, cell-based
HT-29 = test: Cytotoxicity against human HT-29 cells assessed as growth inhibition after 48 hrs by MTT method; assay type: functional, cell-based; conditions: HT-29, 48 h
NCI/ADR-RES = test: Cytotoxicity against human NCI/ADR-RES cells assessed as growth inhibition after 96 hrs by Giemsa staining-based light microscopy; assay type: functional, cell-based
[2] = Cytotoxicity against human MESSA cells assessed as growth inhibition after 72 hrs by CellTitre-Glo assay; assay type: functional, cell-based; conditions: MES-SA
[3] = Cytotoxicity against human MESSA/DX5 cells assessed as growth inhibition after 72 hrs by CellTitre-Glo assay; assay type: functional, cell-based; conditions: MES-SA/Dx5, 72 h
HeLa [4] = test: Induction of apoptosis in human HeLa cells assessed as blockage of mitotic progression at 20 to 100 nM by annexin V staining-based immunofluorescence microscopy; assay type: functional, cell-based
HepG2 = test: Cytotoxicity against human HepG2 cells assessed as growth inhibition after 48 hrs by MTT method; assay type: functional, cell-based; conditions: HepG2, 48 h
[5] = Cell cycle arrest in human PC3 cells assessed as rounded cells at 500 nM after 24 hrs by propidium iodide staining-based flow cytometry; assay type: functional; conditions: PC-3
RD = test: Cell cycle arrest in human RD cells at 500 nM incubated for 24 hrs followed by compound washout measured after 24 hrs; assay type: functional, cell-based
K562 = test: Cell cycle arrest in human K562 cells assessed as mitotic index at 10 times IC50 (reference value: […] +/- […]%); assay type: functional
[6] = Inhibition of hedgehog signaling in mouse NIH/3T3 Shh-Light II cells after 48 hrs by luciferase reporter gene assay; assay type: functional, cell-based
Mus musculus = test: Tlast in CD-1 mouse at 5 mg/kg, iv; assay type: ADME, organism-based; parameters: dose 5 mg/kg, route intravenous; conditions: in vivo
[7] = Mean residence time in CD-1 mouse at 15 mg/kg, po; assay type: ADME, organism-based; parameters: dose 15 mg/kg, route oral; conditions: in vivo
CYP2D6 = CYP2D6 (Homo sapiens, UniProt P10635); test: Inhibition of human CYP2D6 using quinidine as substrate at 1 uM; assay type: ADME; conditions: probe quinidine
Chain of CYP2D6 (P10635 whole entry): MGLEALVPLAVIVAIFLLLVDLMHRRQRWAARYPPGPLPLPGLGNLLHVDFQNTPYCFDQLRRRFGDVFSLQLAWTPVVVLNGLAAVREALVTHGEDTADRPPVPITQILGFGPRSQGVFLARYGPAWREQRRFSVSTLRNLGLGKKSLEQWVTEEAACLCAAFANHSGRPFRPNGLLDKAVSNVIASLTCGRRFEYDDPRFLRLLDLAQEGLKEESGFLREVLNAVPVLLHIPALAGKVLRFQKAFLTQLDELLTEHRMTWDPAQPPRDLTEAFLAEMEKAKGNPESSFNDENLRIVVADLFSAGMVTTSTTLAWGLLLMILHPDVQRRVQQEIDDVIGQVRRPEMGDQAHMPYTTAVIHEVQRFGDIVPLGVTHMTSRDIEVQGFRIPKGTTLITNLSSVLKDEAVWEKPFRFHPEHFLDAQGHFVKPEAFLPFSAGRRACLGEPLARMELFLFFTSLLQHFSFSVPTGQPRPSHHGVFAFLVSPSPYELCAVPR

For `COc1cc(C(=O)c2ccn(-c3cccc(N)c3)c2)cc(OC)c1OC`, which IC50 (Tubulin) is on record?
Its IC50 is 1.4 µM.

What about the IC50 (HeLa [1]) of the same compound?
Its IC50 is 0.03 µM.

What about the IC50 (HT-29) of the same compound?
The IC50 was 0.06 µM.

What about the IC50 (NCI/ADR-RES) of the same compound?
Its IC50 is 0.001 µM.

What about the IC50 [2] of the same compound?
The IC50 was 0.0018 µM.

And the IC50 [3]?
Its IC50 is 0.0046 µM.

What about the Activity (HeLa [4]) of the same compound?
The Activity was “Active”.

What about the IC50 (HepG2) of the same compound?
The IC50 was 0.275 µM.

What about the Activity [5] of the same compound?
The Activity was “Active”.

And the Activity (RD)?
The Activity was “Active”.

And the Activity (K562)?
The Activity was 60%.

And the IC50 [6]?
The IC50 was 0.676 µM.

And the inhibition [6]?
Its inhibition is “Dose-dependent effect”.

And the Tlast (Mus musculus)?
Its Tlast is 480 min.

And the MRT [7]?
Its MRT is 2.42 h.

And the inhibition at 1 µM (CYP2D6)?
The inhibition at 1 µM was less than 5%.

Source: ChEMBL document CHEMBL3351435, “New pyrrole derivatives with potent tubulin polymerization inhibiting activity as anticancer agents including hedgehog-dependent cancer” (J Med Chem, 2014)
